Experimental data: patent US10975077B2 (Novira Therapeutics, Inc., priority 2016, dated 2021)

Tested on: HBV (encapsidated HBV DNA, HepG2.2.15 cells)
Experiment: HBV replication inhibition assay, BDNA assay in HepG2.2.15 cells
Type: cell-based
Conditions: Activity in BDNA-assay
Summary of the method: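 Encapsidated HBV DNA in DNase-treated, proteinase K-lysed supernatant was measured by branched DNA after 6 days' compound exposure, refreshed on day 3, of HepG2.2.15 cells in 0.5% DMSO. Signals normalized to DMSO-treated wells; EC50 from nonlinear regression of inhibition against log concentration.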

| SMILES | EC50 [nM] |
| --- | --- |
| CCC(O)C1CN(C)C(=O)c2c3c(nn2C1)CCN(C(=O)Nc1ccc(F)c(C#N)c1)C3 (single isomer, unassigned) [Compound 097_E3, (S*)—N-(3-cyano-4-fluorophenyl)-8-((S*)-1-hydroxypropyl)-10-methyl-11-oxo-1,3,4,7,8,9,10,11-octahydro-2H-pyrido[4′,3′: 3,4]pyrazolo[1,5-a][1,4]diazepine-2-carboxamide] | 100 to 500 |
| CN1CC([S+](C)[O-])Cn2nc3c(c2C1=O)CN(C(=O)Nc1ccc(F)c(Cl)c1)CC3 (single isomer, unassigned) [Compound 026B, N-(3-chloro-4-fluoro-phenyl)-10-methyl-8-methylsulfinyl-11-oxo-1,3,4,7,8,9-hexahydropyrido[2,3]pyrazolo[2,4-b][1,4]diazepine-2-carboxamide] | 500 to 1000 |
| C[C@@H]1Cc2nn3c(c2CN1C(=O)Nc1ccc(F)c(Cl)c1)C(=O)N(CC(F)F)CC(CO)C3 (single isomer, unassigned) [Compound 092_D2, (3R,8 S*)—N-(3-chloro-4-fluorophenyl)-10-(2,2-difluoroethyl)-8-(hydroxymethyl)-3-methyl-11-oxo-1,3,4,7,8,9,10,11-octahydro-2H-pyrido[4′,3′:3,4]pyrazolo[1,5-a][1,4]diazepine-2-carboxamide] | 1 to 100 |
| CCC(O)C1CN(C)C(=O)c2c3c(nn2C1)CC(C)N(C(=O)Nc1ccc(F)c(C#N)c1)C3 [Compound 108_D2, (3R,8R*)—N-(3-cyano-4-fluorophenyl)-8-((R)-1-hydroxypropyl)-3,10-dimethyl-11-oxo-1,3,4,7,8,9,10,11-octahydro-2H-pyrido[4′,3′:3,4]pyrazolo[1,5-a][1,4]diazepine-2-carboxamide] | 100 to 500 |
| CCC(O)C1CN(C)C(=O)c2c3c(nn2C1)CC(C)N(C(=O)Nc1ccc(F)c(Br)c1)C3 [Compound 109_D2, (3R,8R*)—N-(3-bromo-4-fluorophenyl)-8-((R)-1-hydroxypropyl)-3,10-dimethyl-11-oxo-1,3,4,7,8,9,10,11-octahydro-2H-pyrido[4′,3′:3,4]pyrazolo[1,5-a][1,4]diazepine-2-carboxamide] | 1 to 100 |
| CN1CC(CNCC(F)F)Cn2nc3c(c2C1=O)CN(C(=O)Nc1cc(Br)c(F)cc1F)CC3 (single isomer, unassigned) [Compound 125_E2, (S*)—N-(5-bromo-2,4-difluorophenyl)-8-(((2,2-difluoroethyl)amino)methyl)-10-methyl-11-oxo-1,3,4,7,8,9,10,11-octahydro-2H-pyrido[4′,3′:3,4]pyrazolo[1,5-a][1,4]diazepine-2-carboxamide] | 1 to 100 |

Same assay, conditions: Hepatitis B virus, HepG2.2.15, Activity in BDNA-assay

| SMILES | EC50 [nM] |
| --- | --- |
| CCC(O)C1CN(C)C(=O)c2c3c(nn2C1)CC(C)N(C(=O)Nc1ccc(F)c(Br)c1)C3 [Compound 109_D1, (3R,8 S*)—N-(3-bromo-4-fluorophenyl)-8-((R)-1-hydroxypropyl)-3,10-dimethyl-11-oxo-1,3,4,7,8,9,10,11-octahydro-2H-pyrido[4′,3′:3,4]pyrazolo[1,5-a][1,4]diazepine-2-carboxamide] | 1 to 100 |
| CN1CC(CNCC(F)F)Cn2nc3c(c2C1=O)CN(C(=O)Nc1ccc(F)c(Br)c1)CC3 (single isomer, unassigned) [Compound 130_E1, (R*)—N-(3-bromo-4-fluorophenyl)-8-(((2,2-difluoroethyl)amino)methyl)-10-methyl-11-oxo-1,3,4,7,8,9,10,11-octahydro-2H-pyrido[4′,3′:3,4]pyrazolo[1,5-a][1,4]diazepine-2-carboxamide] | 1 to 100 |
| CN(C)C(=O)C1CN(C)C(=O)c2c3c(nn2C1)CCN(C(=O)Nc1ccc(F)c(Cl)c1)C3 (centres unmarked) [Compound 032, N2-(3-chloro-4-fluorophenyl)-N8,N8,10-trimethyl-11-oxo-1,3,4,7,8,9,10,11-octahydro-2H-pyrido[4′,3′:3,4]pyrazolo [1,5-a][1,4]diazepine-2,8-dicarboxamide] | 100 to 500 |
| CN1CC(CN2CCC(F)(F)C2)Cn2nc3c(c2C1=O)CN(C(=O)Nc1ccc(F)c(C(F)(F)F)c1)CC3 (centres unmarked) [Compound 068, 8-((3,3-difluoropyrrolidin-1-yl)methyl)-N-(4-fluoro-3-(trifluoromethyl)phenyl)-10-methyl-11-oxo-1,3,4,7,8,9,10,11-octahydro-2H-pyrido[4′,3′:3,4]pyrazolo[1,5-a][1,4] diazepine-2-carboxamide] | 100 to 500 |
| CC[C@H](O)[C@@H]1CN(C)C(=O)c2c3c(nn2C1)CCN(C(=O)Nc1cc(Cl)c(F)cc1F)C3 (single isomer, unassigned) [Compound 096_E1, (R*)—N-(5-chloro-2,4-difluorophenyl)-8-((S*)-1-hydroxypropyl)-10-methyl-11-oxo-1,3,4,7,8,9,10,11-octahydro-2H-pyrido[4′,3′:3,4]pyrazolo[1,5-a][1,4]diazepine-2-carboxamide] | 1 to 100 |
| C[C@@H]1Cc2nn3c(c2CN1C(=O)Nc1ccc(F)c(C(F)(F)F)c1)C(=O)N(C)CC(CO)C3 (single isomer, unassigned) [Compound 081_D1, (3R,8S*)—N-(4-fluoro-3-(trifluoromethyl)phenyl)-8-(hydroxymethyl)-3,10-dimethyl-11-oxo-3,4,8,9,10,11-hexahydro-1H-pyrido[4′,3′:3,4]pyrazolo[1,5-a][14]diazepine-2 (7H)-carboxamide] | 1 to 100 |
| CCC(O)C1CN(C)C(=O)c2c3c(nn2C1)CCN(C(=O)Nc1cc(Cl)c(F)cc1F)C3 (single isomer, unassigned) [Compound 096_E2, (S*)—N-(5-chloro-2,4-difluorophenyl)-8-((R*)-1-hydroxypropyl)-10-methyl-11-oxo-1,3,4,7,8,9,10,11-octahydro-2H-pyrido[4′,3′:3,4]pyrazolo[1,5-a][1,4]diazepine-2-carboxamide] | 100 to 500 |
| COC(=O)c1cn2nc3c(c2c(=O)n1C)CN(C(=O)Nc1ccc(F)c(Cl)c1)CC3 [Compound 040, methyl 2-((3-chloro-4-fluorophenyl)carbamoyl)-9-methyl-10-oxo-1,2,3,4,9,10-hexahydropyrido[4′,3′:3,4]pyrazolo[1,5-a]pyrazine-8-carboxylate] | 100 to 500 |
| CN1CC(CNCC(F)(F)F)Cn2nc3c(c2C1=O)CN(C(=O)Nc1ccc(F)c(C#N)c1)CC3 (centres unmarked) [Compound 120, N-(3-cyano-4-fluorophenyl)-10-methyl-11-oxo-8-(((2,2,2-trifluoroethyl)amino)methyl)-1,3,4,7,8,9,10,11-octahydro-2H-pyrido[4′,3′:3,4]pyrazolo [1,5-a][1,4]diazepine-2-carboxamide] | 1 to 100 |
| C[C@@H]1Cc2nn3c(c2CN1C(=O)Nc1ccc(F)c(C#N)c1)C(=O)N(C)CC(F)C3 (single isomer, unassigned) [Compound 137_D1, (3R,8R*)—N-(3-cyano-4-fluorophenyl)-8-fluoro-3,10-dimethyl-11-oxo-1,3,4,7,8,9,10,11-octahydro-2H-pyrido[4′,3′:3,4]pyrazolo[1,5-a][1,4]diazepine-2-carboxamide_D1] | 1 to 100 |
| CNC(=O)C1CN(C)C(=O)c2c3c(nn2C1)CCN(C(=O)Nc1ccc(F)c(Cl)c1)C3 (centres unmarked) [Compound 031, N2-(3-chloro-4-fluorophenyl)-N8,10-dimethyl-11-oxo-1,3,4,7,8,9,10,11-octahydro-2H-pyrido[4′,3′:3,4]pyrazolo[1,5-a][1,4]diazepine-2,8-dicarboxamide] | 1 to 100 |
